Measurements as given in publication PMC4965013, “Open Source Drug Discovery with the Malaria Box Compound Collection for Neglected Diseases and Beyond” (PLoS Pathogens, 2016).

Tests used:
[1] = system: P. falciparum; experiment: EC50 listed in S2 Table Metabolomics (used to set the concentration tested); type: cell-based; conditions: Plasmodium falciparum; EC50 used for Factor_XEC50 in metabolomics; read-out: EC50_nM
[2] = system: P. falciparum 3D7 trophozoites; experiment: Metabolomic fingerprint profiling LC-MS; type: cell-based, Plasmodium falciparum; design: UDP-D-glucose / ADP-D-glucose: unit not given here; conditions: for Acetyllysine / N-acetyl-L-ornithine / N-carbamoyl-L-aspartate / NADPH / dAMP / dCMP / dTDP / dTMP / dTTP / dihydroorotate / orotate / DLH / DLS/SDL/SID / PD / PEE / PVNF / 3-phosphoglycerate / ADP-D-glucose / ATP / CDP / D-sedoheptulose-1/7-phosphate / FAD / GMP / NAD+ / NADP+ / Octoluse Bisphosphate / Pyroglutamic acid / UDP-D-glucose / UDP-D-glucuronate / UDP-N-acetyl-glucosamine / UDP / UMP / UTP / a-ketoglutarate / citrate/isocitrate / cytidine / dATP / dGMP/AMP / fumarate / glucose-1/6-phosphate / glycerate / guanine / guanosine / hypoxanthine / indole / inosine / nicotinate / ornithine / phosphoenolpyruvate / pyruvate / ribose-phosphate / sarcosine/alanine / sn-glycerol-3-phosphate / succinate/methylmalonic acid / uridine / xanthosine: S2 Table Metabolomics; for Acetyllysine: metabolite Acetyllysine; for N-acetyl-L-ornithine: metabolite N-acetyl-L-ornithine; for N-carbamoyl-L-aspartate: metabolite N-carbamoyl-L-aspartate; for NADPH: metabolite NADPH; for dAMP: metabolite dAMP; for dCMP: metabolite dCMP; for dTDP: metabolite dTDP; for dTMP: metabolite dTMP; for dTTP: metabolite dTTP; for dihydroorotate: metabolite dihydroorotate; for orotate: metabolite orotate; for DLH: peptide DLH; for DLS/SDL/SID: peptide DLS/SDL/SID; for PD: peptide PD; for PEE: peptide PEE; for PVNF: peptide PVNF; for 3-phosphoglycerate: metabolite 3-phosphoglycerate; for ADP-D-glucose: metabolite ADP-D-glucose; for ATP: metabolite ATP; for CDP: metabolite CDP; for CDP / D-sedoheptulose-1/7-phosphate / GMP / Octoluse Bisphosphate / UDP / UMP / UTP / citrate/isocitrate / dGMP/AMP / fumarate / glucose-1/6-phosphate / glycerate / guanine / guanosine / inosine / pyruvate / sarcosine/alanine / succinate/methylmalonic acid / uridine / xanthosine: change in metabolite level after compound treatment; for D-sedoheptulose-1/7-phosphate: metabolite D-sedoheptulose-1/7-phosphate; for FAD: metabolite FAD; for GMP: metabolite GMP; for NAD+: metabolite NAD+; for NADP+: metabolite NADP+; for Octoluse Bisphosphate: metabolite Octoluse Bisphosphate; for Pyroglutamic acid: metabolite Pyroglutamic acid; for UDP-D-glucose: metabolite UDP-D-glucose; for UDP-D-glucuronate: metabolite UDP-D-glucuronate; for UDP-N-acetyl-glucosamine: metabolite UDP-N-acetyl-glucosamine; for UDP: metabolite UDP; for UMP: metabolite UMP; for UTP: metabolite UTP; for a-ketoglutarate: metabolite a-ketoglutarate; for citrate/isocitrate: metabolite citrate/isocitrate; for cytidine: metabolite cytidine; for dATP: metabolite dATP; for dGMP/AMP: metabolite dGMP/AMP; for fumarate: metabolite fumarate; for glucose-1/6-phosphate: metabolite glucose-1/6-phosphate; for glycerate: metabolite glycerate; for guanine: metabolite guanine; for guanosine: metabolite guanosine; for hypoxanthine: metabolite hypoxanthine; for indole: metabolite indole; for inosine: metabolite inosine; for 2_3-Diphosphoglyceric acid / 4-phosphopantothenate / 6-phospho-D-gluconate / FMN / IMP / Pyrophosphate / Sedoheptoluse bisphosphate / cyclic-AMP / glutathione disulfide / lactate / myo-inositol: metabolite level change after treatment; for nicotinate: metabolite nicotinate; for ornithine: metabolite ornithine; for phosphoenolpyruvate: metabolite phosphoenolpyruvate; for pyruvate: metabolite pyruvate; for ribose-phosphate: metabolite ribose-phosphate; for sarcosine/alanine: metabolite sarcosine/alanine; for sn-glycerol-3-phosphate: metabolite sn-glycerol-3-phosphate; for succinate/methylmalonic acid: metabolite succinate/methylmalonic acid; for uridine: metabolite uridine; for xanthosine: metabolite xanthosine

Compound: CCOc1cc2c(cc1OCC)C(c1cc(OC)c(O)cc1Cl)NCC2 (stereo not shown) [MMV008956]
- EC50 [1]: 0.37 µM
- Acetyllysine [2]: -0.8944
- N-acetyl-L-ornithine [2]: -0.5916
- N-carbamoyl-L-aspartate [2]: 0.571
- NADPH [2]: 0.6672
- dAMP [2]: 1.243
- dCMP [2]: 4.619
- dTDP [2]: 1.146
- dTMP [2]: 1.439
- dTTP [2]: 1.156
- dihydroorotate [2]: 1.1855
- orotate [2]: -0.3284
- DLH [2]: -3.711
- DLS/SDL/SID [2]: -0.5828
- PD [2]: -0.4938
- PEE [2]: -0.813
- PVNF [2]: -0.872
- 3-phosphoglycerate [2]: 0.6004
- ADP-D-glucose [2]: 0.1393
- ATP [2]: 0.8747
- CDP [2]: 1.061
- D-sedoheptulose-1/7-phosphate [2]: 0.1684
- FAD [2]: 0.6779
- GMP [2]: -0.4979
- NAD+ [2]: 0.03875
- NADP+ [2]: 0.5626
- Octoluse Bisphosphate [2]: 0.08662
- Pyroglutamic acid [2]: 0.4321
- UDP-D-glucose [2]: 0.1438
- UDP-D-glucuronate [2]: 0.2178
- UDP-N-acetyl-glucosamine [2]: 0.5265
- UDP [2]: 1.214
- UMP [2]: 0.03068
- UTP [2]: 0.582
- a-ketoglutarate [2]: -0.2514
- citrate/isocitrate [2]: -0.7004
- cytidine [2]: 0.5985
- dATP [2]: 0.6577
- dGMP/AMP [2]: 0.5512
- fumarate [2]: -0.2713
- glucose-1/6-phosphate [2]: 2.3505
- glycerate [2]: 0.6776
- guanine [2]: 0.5662
- guanosine [2]: -1.286
- hypoxanthine [2]: 0.3973
- indole [2]: -0.009638
- inosine [2]: -0.3408
- 2_3-Diphosphoglyceric acid [2]: 1.008
- 4-phosphopantothenate [2]: 0.721
- 6-phospho-D-gluconate [2]: 0.8262
- FMN [2]: 0.6429
- IMP [2]: 0.4913
- Pyrophosphate [2]: -0.1587
- Sedoheptoluse bisphosphate [2]: 0.3697
- cyclic-AMP [2]: 0.7848
- glutathione disulfide [2]: 0.5413
- lactate [2]: 1.983
- myo-inositol [2]: 3.051
- nicotinate [2]: 0.3445
- ornithine [2]: -0.06192
- phosphoenolpyruvate [2]: 0.186
- pyruvate [2]: 0.4759
- ribose-phosphate [2]: 0.1544
- sarcosine/alanine [2]: -0.3792
- sn-glycerol-3-phosphate [2]: 0.3263
- succinate/methylmalonic acid [2]: -0.2652
- uridine [2]: 0.5193
- xanthosine [2]: -1.526

Compound: OC(CNC1CCCCC1)Cn1c2ccccc2c2ccccc21 (stereo not shown) [MMV009063]
- EC50 [1]: 0.293 µM
- Acetyllysine [2]: -0.9697
- N-acetyl-L-ornithine [2]: -0.4154
- N-carbamoyl-L-aspartate [2]: -0.3154
- NADPH [2]: 0.37
- dAMP [2]: 0.9178
- dCMP [2]: 4.938
- dTDP [2]: 0.7098
- dTMP [2]: 0.6703
- dTTP [2]: 1.896
- dihydroorotate [2]: -0.3265
- orotate [2]: -0.5164
- DLH [2]: -0.8674
- DLS/SDL/SID [2]: -0.2423
- PD [2]: -0.8841
- PEE [2]: -0.7244
- PVNF [2]: -0.6115
- 3-phosphoglycerate [2]: 0.9312
- ADP-D-glucose [2]: 0.2307
- ATP [2]: 0.3671
- CDP [2]: 0.5148
- D-sedoheptulose-1/7-phosphate [2]: -0.5559
- FAD [2]: 0.5708
- GMP [2]: 0.12
- NAD+ [2]: -0.1605
- NADP+ [2]: 0.3102
- Octoluse Bisphosphate [2]: 0.2421
- Pyroglutamic acid [2]: 0.1616
- UDP-D-glucose [2]: 0.2936
- UDP-D-glucuronate [2]: 0.2553
- UDP-N-acetyl-glucosamine [2]: 0.3811
- UDP [2]: 0.491
- UMP [2]: 0.4628
- UTP [2]: 0.409
- a-ketoglutarate [2]: -0.1494
- citrate/isocitrate [2]: 0.2484
- cytidine [2]: 0.7064
- dATP [2]: 0.1129
- dGMP/AMP [2]: 0.3842
- fumarate [2]: -0.3431
- glucose-1/6-phosphate [2]: 1.039
- glycerate [2]: 0.4301
- guanine [2]: 0.4492
- guanosine [2]: 0.3938
- hypoxanthine [2]: 0.2685
- indole [2]: -0.01895
- inosine [2]: 0.305
- 2_3-Diphosphoglyceric acid [2]: 0.9003
- 4-phosphopantothenate [2]: 0.6116
- 6-phospho-D-gluconate [2]: 0.5165
- FMN [2]: 0.5888
- IMP [2]: 0.4443
- Pyrophosphate [2]: -0.0661
- Sedoheptoluse bisphosphate [2]: 0.4491
- cyclic-AMP [2]: 0.4153
- glutathione disulfide [2]: 0.4569
- lactate [2]: 0.8013
- myo-inositol [2]: 0.939
- nicotinate [2]: 0.31
- ornithine [2]: 0.3762
- phosphoenolpyruvate [2]: 0.7676
- pyruvate [2]: 0.735
- ribose-phosphate [2]: 0.3548
- sarcosine/alanine [2]: -0.09066
- sn-glycerol-3-phosphate [2]: 0.5324
- succinate/methylmalonic acid [2]: -0.07148
- uridine [2]: 0.5909
- xanthosine [2]: -0.08621
